# Assay results from patent US5543415A, “Antidepressants” (Kyowa Hakko Kogyo Co., Ltd., priority 1992, dated 1996).
# Test system: ddY-strain male mice
# Assay: Acute Toxicity Test (minimum lethal dose, oral)
# Assay type: in vivo
# Settings: seven days after administration
# Experimental: Test compounds were orally administered to groups of ddY-strain male mice weighing 20±1 g, each group consisting of three mice. Seven days after the administration, minimum lethal dose (MLD) of each compound was determined by observing the mortality.
row,Structure (SMILES),MLD (minimum lethal dose) [mg/kg]
1,"CCCn1c(=O)c2[nH]c(/C=C/c3ccc(OC)c(OC)c3)nc2n(CCC)c1=S [Compound 71, (E)-8-(3,4-Dimethoxystyryl)-1,3-dipropyl-2-thioxanthine]",> 100
2,"CCn1c(=O)c2c(nc(/C=C/c3ccc(OC)c(OC)c3Cl)n2C)n(CC)c1=O [Compound 106, (E)-8-(2-Chloro-3,4-dimethoxystyryl)-1,3-diethyl-7-methylxanthine]",> 300
3,"COc1ccc(/C=C/c2nc3c(c(=O)n(C)c(=O)n3C)n2C)cc1Br [Compound 116, (E)-8-(3-Bromo-4-methoxystyryl)caffeine]",> 300
4,"CCCn1c(=O)c2c(nc(/C=C/c3cccc(F)c3)n2C)n(CCC)c1=O [Compound 38, (E)-8-(3-Fluorostyryl)-7-methyl-1,3-dipropylxanthine]",> 300
5,"CCn1c(=O)c2[nH]c(/C=C/c3ccc(OC)c(C)c3C)nc2n(CC)c1=O [Compound 81, (E)-1,3-Diethyl-8-(4-methoxy-2,3-dimethylstyryl)xanthine]",> 300
6,"CCCOc1ccc(/C=C/c2nc3c([nH]2)c(=O)n(CC)c(=O)n3CC)cc1 [Compound 125, (E)-1,3-Diethyl-8-(4-propoxystyryl)xanthine]",> 100
7,"CCn1c(=O)c2c(nc(/C=C/c3ccc(OCC(=O)O)cc3)n2C)n(CC)c1=O [Compound 190, (E)-8-(4-Carboxymethoxystyryl)-1,3-diethyl-7-methylxanthine]",> 100
8,"CCn1c(=O)c2[nH]c(/C=C/c3ccc(F)c(Cl)c3)nc2n(CC)c1=O [Compound 176, (E)-8-(3-Chloro-4-fluorostyryl)-1,3-diethylxanthine]",> 100
9,"CCn1c(=O)c2[nH]c(/C=C/c3cccc(OC)c3[N+](=O)[O-])nc2n(CC)c1=O [Compound 121, (E)-1,3-Diethyl-8-(3-methoxy-2-nitrostyryl)xanthine]",> 300
10,"CCn1c(=O)c2c(nc(/C=C/c3ccc(OCCCCN=[N+]=[N-])cc3)n2C)n(CC)c1=O [Compound 187, (E)-8-[4-(4-Azidobutoxy)styryl]-1,3-diethyl-7-methylxanthine]",> 100
11,"CCn1c(=O)c2[nH]c(/C=C/c3ccc(F)c(F)c3)nc2n(CC)c1=O [Compound 111, (E)-8-(3,4-Difluorostyryl)-1,3-diethylxanthine]",> 300
12,"CCCn1c(=O)c2[nH]c(/C=C/c3ccc4c(c3)OCCO4)nc2n(CCC)c1=O [Compound 17, (E)-8-[2-(1,4-Benzodioxan-6-yl)vinyl]-1,3-dipropylxanthine]",> 300
13,"CCn1c(=O)c2c(nc(/C=C/c3ccccc3OC)n2C)n(CC)c1=O [Compound 158, (E)-1,3-Diethyl-8-(2-methoxystyryl)-7-methylxanthine]",> 100
14,"CCn1c(=O)c2[nH]c(/C=C/c3cccc(OC)c3OC)nc2n(CC)c1=O [Compound 75, (E)-8-(2,3-Dimethoxystyryl)-1,3-diethylxanthine]",> 300
15,"CCn1c(=O)c2[nH]c(/C=C/c3ccc(OC)c(OC)c3)nc2n(CC)c1=O [Compound 73, (E)-8-(3,4-Dimethoxystyryl)-1,3-diethylxanthine]",> 300
16,"CCn1c(=O)c2[nH]c(/C=C/c3cccc(Br)c3)nc2n(CC)c1=O [Compound 161, (E)-8-(3-Bromostyryl)-1,3-diethylxanthine]",> 100

row,Structure (SMILES),MLD (minimum lethal dose) [mg/kg]
1,"CCCn1c(=O)c2[nH]c(/C=C/c3cc(Br)c(OC)c(OC)c3)nc2n(CCC)c1=O [Compound 60, (E)-8-(3-Bromo-4,5-dimethoxystyryl)-1,3-dipropylxanthine]",> 300
2,"CCn1c(=O)c2c(nc(/C=C/c3cccc(OC)c3[N+](=O)[O-])n2C)n(CC)c1=O [Compound 122, (E)-1,3-Diethyl-8-(3-methoxy-2-nitrostyryl)-7-methyl-xanthine]",> 100
3,"CCCn1c(=O)c2[nH]c(/C=C/c3cc(OC)c(OCc4ccccc4)c(OC)c3)nc2n(CCC)c1=O [Compound 27, (E)-8-(4-Benzyloxy-3,5-dimethoxystyryl)-1,3-dipropylxanthine]",> 100
4,"CCn1c(=O)c2c(nc(/C=C/c3cc(OC)c(OC)cc3[N+](=O)[O-])n2C)n(CC)c1=O [Compound 120, (E)-8-(4,5-Dimethoxy-2-nitrostyryl)-1,3-diethyl-7-methylxanthine]",> 300
5,"CCCn1c(=O)c2c(nc(/C=C/c3ccc(OC)c(OC)c3)n2C)n(CCC)c1=S [Compound 72, (E)-8-(3,4-Dimethoxystyryl)-7-methyl-1,3-dipropyl-2-thioxanthine]",> 300
6,"CCn1c(=O)c2c(nc(/C=C/c3cc(C)ccc3C)n2C)n(CC)c1=O [Compound 110, (E)-8-(2,5-Dimethylstyryl)-1,3-diethyl-7-methylxanthine]",> 300
7,"CCn1c(=O)c2c(nc(/C=C/c3ccc(OC)c(O)c3)n2C)n(CC)c1=O [Compound 183, (E)-1,3-Diethyl-8-(3-hydroxy-4-methoxystyryl)-7-methylxanthine]",> 100
8,"CCCCOc1ccc(/C=C/c2nc3c(c(=O)n(CCC)c(=O)n3CCC)n2C)cc1 [Compound 53, (E)-8-(4-Butoxystyryl)-7-methyl-1,3-dipropylxanthine]",> 300
9,"CCn1c(=O)c2c(nc(/C=C/c3cc(OC)c(OC)cc3Br)n2C)n(CC)c1=O [Compound 118, (E)-8-(2-Bromo-4,5-dimethoxystyryl)-1,3-diethyl-7-methylxanthine]",> 100
10,"C#CCn1c(/C=C/c2ccc(OC)c(OC)c2)nc2c1c(=O)n(CCC)c(=O)n2CCC [Compound 67, (E)-8-(3,4-Dimethoxystyryl)-7-propargyl-1,3-dipropylxanthine]",> 300
11,"CCCCOc1ccc(/C=C/c2nc3c([nH]2)c(=O)n(CCC)c(=O)n3CCC)cc1 [Compound 52, (E)-8-(4-Butoxystyryl)-1,3-dipropylxanthine]",> 100
12,"CCn1c(=O)c2c(nc(/C=C/c3cccc(C(F)(F)F)c3)n2C)n(CC)c1=O [Compound 164, (E)-1,3-Diethyl-7-methyl-8-(3-trifluoromethylstyryl)xanthine]",> 100
13,"CCn1c(=O)c2c(nc(/C=C/c3cccc([N+](=O)[O-])c3)n2C)n(CC)c1=O [Compound 160, (E)-1,3-Diethyl-7-methyl-8-(3-nitrostyryl)xanthine]",> 100
14,"CCn1c(=O)c2c(nc(/C=C/c3ccc(OCCCCN)cc3)n2C)n(CC)c1=O [Compound 188, (E)-8-[4-(4-Aminobutoxy)styryl]-1,3-diethyl-7-methylxanthine]",> 100
15,"COc1cc(C)c(/C=C/c2nc3c([nH]2)c(=O)n(C)c(=O)n3C)cc1C [Compound 101, (E)-8-(4-Methoxy-2,5-dimethylstyryl)theophylline]",> 100
16,"CCn1c(=O)c2c(nc(/C=C/c3ccc(-c4ccccc4)cc3)n2C)n(CC)c1=O [Compound 171, (E)-1,3-Diethyl-7-methyl-8-(4-phenylstyryl)xanthine]",> 100
